Test results: article PMC12300041, “Tricyclic Isatin Derivatives as Anti-Inflammatory Compounds with High Kinase Binding Affinity” (Molecules, 2025)

Assays:
Test in all cases: KINOMEscan
Type in all cases: binding
STK35 = target: T1, STK35 (Homo sapiens, UniProt Q8TDR2)
T1 construct: purchased Eurofins DiscoverX KINOMEscan
In short: (§1)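 Measured as Kd. Free kinase after 1 h at room temperature was captured on immobilized ligand and detected by qPCR; compound titrated in 12 half-log steps from 33 μM.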

WNK3 = target: T2, WNK3 (Homo sapiens, UniProt Q9BYP7)
T2 construct: purchased Eurofins DiscoverX KINOMEscan
In short: (§2)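 Compound and kinase were incubated at room temperature for 1 h, the free kinase fraction was captured with an immobilized affinity ligand, and capture was quantified by quantitative PCR; Kd values used a 12-point half-log series up to 33 μM.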

PLK2 = target: T3, PLK2 (Homo sapiens, UniProt Q9NYY3)
T3 construct: purchased Eurofins DiscoverX KINOMEscan
In short: as §1

S6K1 = target: T4, S6K1 (Homo sapiens, UniProt P23443)
T4 construct: purchased Eurofins DiscoverX KINOMEscan
In short: as §2

TRKB = target: T5, TRKB (Homo sapiens, UniProt Q16620)
T5 construct: purchased Eurofins DiscoverX KINOMEscan
In short: as §2

PIP5K1A = target: T6, PIP5K1A (Homo sapiens, UniProt Q99755)
T6 construct: purchased Eurofins DiscoverX KINOMEscan
In short: as §2

DLK = target: T7, DLK (Homo sapiens, UniProt Q12852)
T7 construct: purchased Eurofins DiscoverX KINOMEscan
In short: as §2

ANKK1 = target: T8, ANKK1 (Homo sapiens, UniProt Q8NFD2)
T8 construct: purchased Eurofins DiscoverX KINOMEscan
In short: as §1

MAP3K3 = target: T9, MAP3K3 (Homo sapiens, UniProt Q99759)
T9 construct: purchased Eurofins DiscoverX KINOMEscan
In short: as §2

PDPK1 = target: T10, PDPK1 (Homo sapiens, UniProt O15530)
T10 construct: purchased Eurofins DiscoverX KINOMEscan
In short: as §2

RIPK2 = target: T11, RIPK2 (Homo sapiens, UniProt O43353)
T11 construct: purchased Eurofins DiscoverX KINOMEscan
In short: as §1

CAMK1 = target: T12, CAMK1 (Homo sapiens, UniProt Q14012)
T12 construct: purchased Eurofins DiscoverX KINOMEscan
In short: as §2

EGFR (G719C) = target: T13, EGFR (G719C) (Homo sapiens, UniProt P00533, G719C)
T13 construct: purchased Eurofins DiscoverX KINOMEscan
In short: as §2

ABL1 (Y253F)-P = target: T14, ABL1 (Y253F)-P (Homo sapiens, UniProt P00519, Y253F)
T14 construct: purchased Eurofins DiscoverX KINOMEscan
In short: as §2

ITK = target: T15, ITK (Homo sapiens, UniProt Q08881)
T15 construct: purchased Eurofins DiscoverX KINOMEscan
In short: as §1

MAP3K1 = target: T16, MAP3K1 (Homo sapiens, UniProt Q13233)
T16 construct: purchased Eurofins DiscoverX KINOMEscan
In short: as §2

MLCK = target: T17, MLCK (Homo sapiens, UniProt Q32MK0)
T17 construct: purchased Eurofins DiscoverX KINOMEscan
In short: as §2

PRKCE = target: T18, PRKCE (Homo sapiens, UniProt Q02156)
T18 construct: purchased Eurofins DiscoverX KINOMEscan
In short: as §1

PIM2 = target: T19, PIM2 (Homo sapiens, UniProt Q9P1W9)
T19 construct: purchased Eurofins DiscoverX KINOMEscan
In short: as §2

PRKX = target: T20, PRKX (Homo sapiens, UniProt P51817)
T20 construct: purchased Eurofins DiscoverX KINOMEscan
In short: as §2

ALK = target: T21, ALK (Homo sapiens, UniProt Q9UM73)
T21 construct: purchased Eurofins DiscoverX KINOMEscan
In short: as §2

PIK3CA = target: T22, PIK3CA (Homo sapiens, UniProt P42336)
T22 construct: purchased Eurofins DiscoverX KINOMEscan
In short: as §2

EPHB1 = target: T23, EPHB1 (Homo sapiens, UniProt P54762)
T23 construct: purchased Eurofins DiscoverX KINOMEscan
In short: as §1

MKNK1 = target: T24, MKNK1 (Homo sapiens, UniProt Q9BUB5)
T24 construct: purchased Eurofins DiscoverX KINOMEscan
In short: as §2

MARK1 = target: T25, MARK1 (Homo sapiens, UniProt Q9P0L2)
T25 construct: purchased Eurofins DiscoverX KINOMEscan
In short: as §2

[1] = target: T26, JAK1 (JH2domain-pseudokinase) (Homo sapiens, UniProt P23458)
T26 construct: JAK1 (JH2domain-pseudokinase); purchased Eurofins DiscoverX KINOMEscan
In short: as §1

EGFR (L858R, T790M) = target: T27, EGFR (L858R, T790M) (Homo sapiens, UniProt P00533, L858R/T790M)
T27 construct: purchased Eurofins DiscoverX KINOMEscan
In short: as §1

MYLK2 = target: T28, MYLK2 (Homo sapiens, UniProt Q9H1R3)
T28 construct: purchased Eurofins DiscoverX KINOMEscan
In short: as §2

PKAC-β = target: T29, PKAC-β (Homo sapiens, UniProt P22694)
T29 construct: purchased Eurofins DiscoverX KINOMEscan
In short: as §2

MRCKA = target: T30, MRCKA (Homo sapiens, UniProt Q5VT25)
T30 construct: purchased Eurofins DiscoverX KINOMEscan
In short: as §2

BIKE = target: T31, BIKE (Homo sapiens, UniProt Q9NSY1)
T31 construct: purchased Eurofins DiscoverX KINOMEscan
In short: as §1

PIK3CA (H1047Y) = target: T32, PIK3CA (H1047Y) (Homo sapiens, UniProt P42336, H1047Y)
T32 construct: purchased Eurofins DiscoverX KINOMEscan
In short: as §2

TBK1 = target: T33, TBK1 (Homo sapiens, UniProt Q9UHD2)
T33 construct: purchased Eurofins DiscoverX KINOMEscan
In short: as §2

PAK7 = target: T34, PAK7 (Homo sapiens, UniProt Q9P286)
T34 construct: purchased Eurofins DiscoverX KINOMEscan
In short: as §2

FLT3 (R834Q) = target: T35, FLT3 (R834Q) (Homo sapiens, UniProt P36888, R834Q)
T35 construct: purchased Eurofins DiscoverX KINOMEscan
In short: as §2

FLT3 = target: T36, FLT3 (Homo sapiens, UniProt P36888)
T36 construct: purchased Eurofins DiscoverX KINOMEscan
In short: as §2

NEK5 = target: T37, NEK5 (Homo sapiens, UniProt Q6P3R8)
T37 construct: purchased Eurofins DiscoverX KINOMEscan
In short: as §2

PHKG2 = target: T38, PHKG2 (Homo sapiens, UniProt P15735)
T38 construct: purchased Eurofins DiscoverX KINOMEscan
In short: as §1

WEE2 = target: T39, WEE2 (Homo sapiens, UniProt P0C1S8)
T39 construct: purchased Eurofins DiscoverX KINOMEscan
In short: as §2

T33 sequence (Q9UHD2 whole entry): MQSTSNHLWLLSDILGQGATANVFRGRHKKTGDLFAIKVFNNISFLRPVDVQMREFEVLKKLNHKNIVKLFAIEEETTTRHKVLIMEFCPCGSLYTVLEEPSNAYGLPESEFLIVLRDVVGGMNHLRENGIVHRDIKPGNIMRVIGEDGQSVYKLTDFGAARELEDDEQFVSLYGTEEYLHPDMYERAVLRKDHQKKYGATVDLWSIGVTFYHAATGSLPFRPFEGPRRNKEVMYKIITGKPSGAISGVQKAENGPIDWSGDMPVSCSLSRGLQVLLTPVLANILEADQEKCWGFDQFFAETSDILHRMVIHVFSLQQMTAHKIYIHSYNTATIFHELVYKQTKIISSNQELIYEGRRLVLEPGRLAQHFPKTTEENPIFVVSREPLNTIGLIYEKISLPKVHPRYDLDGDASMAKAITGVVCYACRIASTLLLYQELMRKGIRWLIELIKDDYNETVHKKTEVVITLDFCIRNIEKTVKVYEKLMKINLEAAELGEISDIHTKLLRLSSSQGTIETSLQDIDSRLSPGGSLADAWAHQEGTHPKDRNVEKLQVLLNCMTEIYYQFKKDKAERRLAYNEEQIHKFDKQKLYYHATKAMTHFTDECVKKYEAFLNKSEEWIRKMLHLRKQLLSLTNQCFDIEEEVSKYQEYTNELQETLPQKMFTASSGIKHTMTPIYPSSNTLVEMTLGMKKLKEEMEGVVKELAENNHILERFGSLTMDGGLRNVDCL
T20 sequence (P51817 whole entry): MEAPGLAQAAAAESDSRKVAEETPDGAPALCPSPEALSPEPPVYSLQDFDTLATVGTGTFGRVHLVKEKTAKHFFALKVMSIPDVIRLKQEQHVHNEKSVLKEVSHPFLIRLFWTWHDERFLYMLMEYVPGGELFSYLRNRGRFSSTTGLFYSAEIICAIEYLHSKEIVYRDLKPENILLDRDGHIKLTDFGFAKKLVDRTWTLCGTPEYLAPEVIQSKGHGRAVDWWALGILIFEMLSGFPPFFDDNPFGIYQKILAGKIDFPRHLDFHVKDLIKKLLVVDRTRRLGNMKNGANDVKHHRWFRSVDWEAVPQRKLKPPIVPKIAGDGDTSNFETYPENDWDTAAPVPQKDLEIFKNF
T3 sequence (Q9NYY3 whole entry): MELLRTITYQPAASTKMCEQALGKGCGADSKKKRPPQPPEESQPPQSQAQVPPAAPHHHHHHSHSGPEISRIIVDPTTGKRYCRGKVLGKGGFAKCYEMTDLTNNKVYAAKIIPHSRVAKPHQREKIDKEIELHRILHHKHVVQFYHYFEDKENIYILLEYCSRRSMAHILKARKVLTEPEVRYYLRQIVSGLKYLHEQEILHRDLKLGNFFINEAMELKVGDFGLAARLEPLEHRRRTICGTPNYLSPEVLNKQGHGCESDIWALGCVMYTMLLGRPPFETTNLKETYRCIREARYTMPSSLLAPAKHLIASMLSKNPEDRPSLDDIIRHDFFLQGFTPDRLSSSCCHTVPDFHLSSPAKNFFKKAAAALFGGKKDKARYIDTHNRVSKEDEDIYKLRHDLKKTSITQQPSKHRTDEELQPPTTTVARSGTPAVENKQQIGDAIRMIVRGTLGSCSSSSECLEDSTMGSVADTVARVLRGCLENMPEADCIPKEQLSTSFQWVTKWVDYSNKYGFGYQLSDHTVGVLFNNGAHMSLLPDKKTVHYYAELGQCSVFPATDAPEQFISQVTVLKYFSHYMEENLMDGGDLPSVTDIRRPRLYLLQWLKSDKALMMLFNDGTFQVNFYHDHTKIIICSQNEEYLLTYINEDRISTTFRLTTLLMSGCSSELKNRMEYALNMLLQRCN
T17 sequence (Q32MK0 whole entry): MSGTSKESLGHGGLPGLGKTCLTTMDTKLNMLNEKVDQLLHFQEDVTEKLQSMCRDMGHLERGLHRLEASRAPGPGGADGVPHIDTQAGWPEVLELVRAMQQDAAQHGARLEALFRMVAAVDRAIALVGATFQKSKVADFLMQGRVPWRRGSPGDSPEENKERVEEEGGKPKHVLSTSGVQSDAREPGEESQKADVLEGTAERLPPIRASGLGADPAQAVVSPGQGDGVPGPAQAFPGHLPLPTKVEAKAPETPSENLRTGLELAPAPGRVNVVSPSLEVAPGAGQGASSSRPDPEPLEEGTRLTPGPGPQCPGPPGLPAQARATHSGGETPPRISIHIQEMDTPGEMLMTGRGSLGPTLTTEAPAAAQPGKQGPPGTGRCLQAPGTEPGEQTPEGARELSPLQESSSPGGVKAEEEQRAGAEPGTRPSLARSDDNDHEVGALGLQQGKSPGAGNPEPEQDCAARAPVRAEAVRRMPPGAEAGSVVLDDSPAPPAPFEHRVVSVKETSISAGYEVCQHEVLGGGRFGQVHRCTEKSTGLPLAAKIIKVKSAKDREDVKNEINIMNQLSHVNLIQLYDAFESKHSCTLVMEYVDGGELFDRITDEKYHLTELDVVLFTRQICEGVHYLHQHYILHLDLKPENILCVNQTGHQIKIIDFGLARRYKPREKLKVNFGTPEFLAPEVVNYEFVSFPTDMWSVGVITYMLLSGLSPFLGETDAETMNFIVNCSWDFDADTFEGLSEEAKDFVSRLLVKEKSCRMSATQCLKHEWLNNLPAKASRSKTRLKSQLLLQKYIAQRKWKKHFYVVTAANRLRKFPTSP
T27 sequence (P00533 25-1210 T790M/L858R): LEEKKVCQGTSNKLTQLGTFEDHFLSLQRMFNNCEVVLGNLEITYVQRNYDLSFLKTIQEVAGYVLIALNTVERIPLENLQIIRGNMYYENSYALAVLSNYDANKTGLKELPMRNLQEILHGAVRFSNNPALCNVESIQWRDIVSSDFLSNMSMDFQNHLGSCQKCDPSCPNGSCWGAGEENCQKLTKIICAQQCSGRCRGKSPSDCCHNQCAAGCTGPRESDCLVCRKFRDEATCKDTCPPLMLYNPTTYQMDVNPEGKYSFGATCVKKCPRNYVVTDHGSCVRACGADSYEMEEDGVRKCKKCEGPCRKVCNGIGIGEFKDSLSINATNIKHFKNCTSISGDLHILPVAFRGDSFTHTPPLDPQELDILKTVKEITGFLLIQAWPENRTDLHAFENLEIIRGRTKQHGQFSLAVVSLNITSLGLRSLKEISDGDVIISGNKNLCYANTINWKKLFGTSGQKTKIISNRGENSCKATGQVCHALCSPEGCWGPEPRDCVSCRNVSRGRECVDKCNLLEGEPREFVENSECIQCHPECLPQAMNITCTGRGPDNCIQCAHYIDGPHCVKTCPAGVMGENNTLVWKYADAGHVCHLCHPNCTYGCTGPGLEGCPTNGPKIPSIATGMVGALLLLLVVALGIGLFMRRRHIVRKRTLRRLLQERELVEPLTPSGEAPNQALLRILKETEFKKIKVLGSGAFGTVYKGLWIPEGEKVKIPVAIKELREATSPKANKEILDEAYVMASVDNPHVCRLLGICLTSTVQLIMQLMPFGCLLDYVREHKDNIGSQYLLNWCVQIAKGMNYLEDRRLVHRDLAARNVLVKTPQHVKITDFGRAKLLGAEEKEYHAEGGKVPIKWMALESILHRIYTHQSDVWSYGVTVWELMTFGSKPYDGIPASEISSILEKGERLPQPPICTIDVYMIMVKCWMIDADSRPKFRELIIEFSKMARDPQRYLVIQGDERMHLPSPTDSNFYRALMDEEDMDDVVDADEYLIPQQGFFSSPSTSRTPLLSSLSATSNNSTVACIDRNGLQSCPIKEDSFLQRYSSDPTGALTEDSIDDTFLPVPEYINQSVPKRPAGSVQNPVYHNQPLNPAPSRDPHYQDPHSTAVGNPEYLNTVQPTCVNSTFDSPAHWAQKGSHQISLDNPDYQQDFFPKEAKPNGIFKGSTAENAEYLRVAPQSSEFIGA
T23 sequence (P54762 18-984): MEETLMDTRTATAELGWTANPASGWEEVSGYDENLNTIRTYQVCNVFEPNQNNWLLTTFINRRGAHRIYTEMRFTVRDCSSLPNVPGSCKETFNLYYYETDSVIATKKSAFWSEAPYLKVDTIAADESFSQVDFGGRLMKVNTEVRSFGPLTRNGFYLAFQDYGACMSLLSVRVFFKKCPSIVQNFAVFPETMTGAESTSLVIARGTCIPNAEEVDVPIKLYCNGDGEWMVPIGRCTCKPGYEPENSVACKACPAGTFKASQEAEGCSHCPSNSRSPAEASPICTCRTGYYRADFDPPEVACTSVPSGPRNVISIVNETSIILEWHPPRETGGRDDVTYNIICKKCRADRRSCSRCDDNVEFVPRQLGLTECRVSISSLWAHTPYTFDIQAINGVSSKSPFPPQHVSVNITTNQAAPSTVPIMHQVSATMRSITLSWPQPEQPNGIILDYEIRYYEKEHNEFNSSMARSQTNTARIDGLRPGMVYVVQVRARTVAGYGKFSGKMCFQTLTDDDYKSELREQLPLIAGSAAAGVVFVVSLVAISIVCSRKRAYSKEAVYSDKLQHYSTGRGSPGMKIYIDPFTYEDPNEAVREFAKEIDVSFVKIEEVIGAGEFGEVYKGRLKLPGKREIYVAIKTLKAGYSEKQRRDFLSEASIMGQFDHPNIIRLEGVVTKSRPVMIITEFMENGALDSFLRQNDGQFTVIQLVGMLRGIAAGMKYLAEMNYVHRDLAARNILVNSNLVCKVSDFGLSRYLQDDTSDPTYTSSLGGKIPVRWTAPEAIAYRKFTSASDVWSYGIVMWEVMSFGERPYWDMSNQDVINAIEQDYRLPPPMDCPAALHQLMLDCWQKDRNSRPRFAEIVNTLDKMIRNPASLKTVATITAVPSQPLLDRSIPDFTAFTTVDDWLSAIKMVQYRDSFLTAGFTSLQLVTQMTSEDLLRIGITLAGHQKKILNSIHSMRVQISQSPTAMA
T26 sequence (P23458 561-860 limits assumed): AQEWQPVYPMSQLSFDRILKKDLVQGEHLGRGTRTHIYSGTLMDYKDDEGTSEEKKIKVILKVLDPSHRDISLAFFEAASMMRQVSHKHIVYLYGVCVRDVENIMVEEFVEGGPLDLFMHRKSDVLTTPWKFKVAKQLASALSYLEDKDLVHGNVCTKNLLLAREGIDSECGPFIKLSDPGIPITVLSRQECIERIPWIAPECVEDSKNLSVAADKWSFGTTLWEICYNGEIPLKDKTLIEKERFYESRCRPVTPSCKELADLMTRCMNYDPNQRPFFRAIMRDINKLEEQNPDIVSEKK

O=C1Nc2c(cc([N+](=O)[O-])c3c2CCCC3)C1=NO [Compound 5d, 3-(Hydroxyimino)-5-nitro-1,3,6,7,8,9-hexahydro-2H-benzo[g]indol-2-one]
inhibition at 10 µM (STK35): 1%
inhibition at 10 µM (WNK3): 28%
inhibition at 10 µM (PLK2): 67%
inhibition at 10 µM (S6K1): 51%
inhibition at 10 µM (TRKB): 34%
inhibition at 10 µM (PIP5K1A): 54%
inhibition at 10 µM (DLK): 23%
inhibition at 10 µM (ANKK1): 8%
inhibition at 10 µM (MAP3K3): 68%
inhibition at 10 µM (PDPK1): 8%
inhibition at 10 µM (RIPK2): 0%
inhibition at 10 µM (CAMK1): 38%
inhibition at 10 µM (EGFR (G719C)): 24%
inhibition at 10 µM (ABL1 (Y253F)-P): 41%
inhibition at 10 µM (ITK): 0%
inhibition at 10 µM (MAP3K1): 6%
inhibition at 10 µM (MLCK): 11%
inhibition at 10 µM (PRKCE): 61%
inhibition at 10 µM (PIM2): 96%
inhibition at 10 µM (PRKX): 0%
inhibition at 10 µM (ALK): 46%
inhibition at 10 µM (PIK3CA): 0%
inhibition at 10 µM (EPHB1): 0%
inhibition at 10 µM (MKNK1): 72%
inhibition at 10 µM (MARK1): 24%
inhibition at 10 µM [1]: 89%
inhibition at 10 µM (EGFR (L858R, T790M)): 2%
inhibition at 10 µM (MYLK2): 30%
inhibition at 10 µM (PKAC-β): 2%
inhibition at 10 µM (MRCKA): 17%
inhibition at 10 µM (BIKE): 75%
inhibition at 10 µM (PIK3CA (H1047Y)): 36%
inhibition at 10 µM (TBK1): 46%
inhibition at 10 µM (PAK7): 55%
inhibition at 10 µM (FLT3 (R834Q)): 10%
inhibition at 10 µM (FLT3): 12%
inhibition at 10 µM (NEK5): 7%
inhibition at 10 µM (PHKG2): 45%
inhibition at 10 µM (WEE2): 0%
